{"source": "paper PMC7918738", "about": "“Microtubule Destabilizing Sulfonamides as an Alternative to Taxane-Based Chemotherapy” (International Journal of Molecular Sciences, 2021)", "key": {"SKOV3 cells": {"tested_on": "SKOV3 cells", "assay": "Annexin V-FITC/PI cell death quantification in SKOV3", "type": "cell-based, human", "conditions": "SKOV3, 72 h, 38 600 nM, 42 50 nM, 45 400 nM, paclitaxel 10 nM", "description": "To determine whether the cytotoxic/antiproliferative effect of the MDS was due to apoptosis induction, cells were treated with variable concentrations of the drug for 72 h or 6 days, stained with Annexin V-FITC (AnV) and propidium iodide (PI), and analyzed by flow cytometry. Double negative cells (AnV^−/PI^−) were classified as live cells (L), cells positive for AnV and negative for PI (AnV^+/PI^−) were considered in Early Apoptosis (EA), cells negative for AnV and positive for PI (AnV^−/PI^+) were considered necrotic (N), and double-positive cells (AnV^+/PI^+) as Late Apoptosis (LA). In all cases, the compounds were used at the same concentrations previously used in cell cycle studies (Table 5).\nMCF7, SKOV-3, and HeLa apoptotic cells were quantified using an Annexin V-FITC/PI apoptosis detection kit (Immunostep, Salamanca, Spain) according to the manufacturer’s guidelines. 1.5 mL/well of cells in the exponential growth phase at 2·10^4 cells/mL were seeded onto 12-well plates and left to attach overnight. After 24 h incubation, cells were treated with selected compounds. After 72 h (MCF7, SKOV-3, and HeLa) and 6 days (MCF7) post-treatment, attached and floating cells of treated and untreated wells were collected, centrifuged, resuspended in Annexin V binding buffer, and stained with Annexin V-FITC/PI. Cells were then incubated in darkness at room temperature for 15 min and a total of 30,000 cells were acquired and analyzed using the BD Accuri™ C6 Plus Flow Cytometer and Software (version 1.0.264.21, BD Biosciences, San José, CA, USA), respectively. Compounds were dissolved in DMSO and the final solvent concentration never exceeded 0.5% (v/v). Control wells included cells with 0.5% (v/v) DMSO."}, "[1]": {"tested_on": "IGROV-1 ovarian carcinoma cells", "assay": "Antiproliferative activity against IGROV-1 (MTT)", "type": "cell-based", "conditions": "Homo sapiens, 72 h", "description": "(§1) The in vitro antiproliferative activity of compounds 38, 42, and 45 against a panel of five human ovarian carcinoma cell lines (SKOV3, IGROV-1, A2780, OVCAR-8, and OVCAR-3) was evaluated by a colorimetric method (Table 3) and compared with paclitaxel. […] For SKOV3, the potency reduction observed for paclitaxel together with a sustained or improved (42 with a 7 nM IC50 value) potency for MDS results in a more favorable profile of the MDS compared to paclitaxel.\n(§2) MCF7 (human breast carcinoma), SKOV-3 (human ovarian carcinoma), OVCAR-3 (human ovarian carcinoma), OVCAR-8 (human ovarian carcinoma), and HeLa (human cervical carcinoma) cell lines were cultured in Dulbecco’s Modified Eagle’s Medium (DMEM) (Gibco, Thermo Fischer Scientific) containing 10% (v/v) heat-inactivated fetal bovine serum (HIFBS) (Lonza-Cambrex, Karlskoga, Sweden), 2 mM L-glutamine (Lonza-Cambrex, Karlskoga, Sweden), 100 μg/mL streptomycin, and 100 IU/mL penicillin (Lonza-Cambrex) at 37 °C in humidified 95% air and 5% CO2. HT-29 (human colon carcinoma), IGROV-1 (human ovarian carcinoma), and A2780 (human ovarian carcinoma) cell lines were cultured in RPMI 1640 medium (Gibco, Thermo Fischer Scientific) supplemented with 10% HIFBS, 100 μg/mL streptomycin, and 100 IU/mL penicillin at 37 °C in humidified 95% air and 5% CO2 atmosphere. The presence of mycoplasma was routinely checked with MycoAlert kit (Lonza-Cambrex) and only mycoplasma-free cells were used in the experiments. Ovarian tumor cell lines were originally acquired from Dr Atanasio Pandiella from Centro de Investigación del Cáncer (CIC), Salamanca, Spain. HeLa, HT-29 and MCF7 tumor cell lines were provided by Dr Faustino Mollinedo from Centro de Investigaciones Biológicas Margarita Salas, Madrid, Spain.\n(§3) MCF7, HeLa, and HT-29 cell proliferation, when treated with the corresponding compounds, were determined using the XTT (sodium 3’-[1(phenylaminocarbonyl)-3,4-tetrazolium]-bis(4-methoxy-6-nitro)-benzenesulfonic acid hydrate) cell proliferation kit (Roche Molecular Biochemicals, Mannheim, Germany). […] The absorbance of the formazan product generated was measured at 450 nm using a multi-well plate reader. SKOV-3, OVCAR-3, OVCAR-8, IGROV-1, A-2780 cell proliferation, when treated with the corresponding compound, were determined using MTT (3-(4,5-dimethylthiazol-2-yl)-2,5-diphenyl-2H-tetrazolium bromide) (Sigma-Aldrich, St. Louis, MO, USA). […] Absorbance was measured at 570 nm in a plate reader (Ultra Evolution, Tecan, Männedorf, Suiza). […] After 24 h incubation, to allow cells to attach to the plates, all compounds were added at 1 µM concentration and the effect on the proliferation was evaluated 72 h post-treatment. […]"}, "[2]": {"tested_on": "OVCAR-8 ovarian carcinoma cells", "design": "method as in ref 14 (Bicaku, E. et al.)", "conditions": "ref 14 (Bicaku, E. et al.); read-out: Antiproliferative Activity IC50 OVCAR-8; cited from earlier work"}, "[3]": {"tested_on": "A2780 ovarian carcinoma cells", "design": "method as in ref 14 (Bicaku, E. et al.)", "conditions": "ref 14 (Bicaku, E. et al.); read-out: Antiproliferative Activity IC50 A2780; cited from earlier work"}, "[4]": {"tested_on": "HT-29 (colon adenocarcinoma)", "design": "method as in ref 52 (a number printed in a supplementary file, which may have a reference list of its own: not looked up in the article's list)", "conditions": "read-out: Antiproliferative Activity IC50 HT-29; cited from earlier work"}, "[5]": {"tested_on": "MCF7 (breast adenocarcinoma)", "design": "method as in PMID 7903152", "conditions": "read-out: Antiproliferative Activity IC50 MCF7; cited from earlier work"}, "[6]": {"design": "method as in PMID 12734814, PMID 17116587, PMID 17613018", "conditions": "cited from earlier work"}, "[7]": {"tested_on": "OVCAR-3 ovarian carcinoma cells", "design": "method as in ref 14 (Bicaku, E. et al.)", "conditions": "ref 14 (Bicaku, E. et al.); read-out: Antiproliferative Activity IC50 OVCAR-3; cited from earlier work"}, "[8]": {"tested_on": "HeLa (cervix epithelioid carcinoma)", "design": "method as in PMID 7903152", "conditions": "read-out: Antiproliferative Activity IC50 HeLa; cited from earlier work"}, "[9]": {"tested_on": "SKOV3 ovarian carcinoma cells", "assay": "Antiproliferative activity against SKOV3 (MTT)", "type": "cell-based", "conditions": "Homo sapiens, SK-OV-3, 72 h", "description": "as §1, §2, §3"}}}
{"smiles": "CC(=O)O[C@H]1C(=O)[C@@]2(C)[C@H]([C@H](OC(=O)c3ccccc3)[C@]3(O)C[C@H](OC(=O)[C@H](O)[C@@H](NC(=O)c4ccccc4)c4ccccc4)C(C)=C1C3(C)C)[C@]1(OC(C)=O)CO[C@@H]1C[C@@H]2O", "note": "[Paclitaxel, reference compound]", "values": [{"measurement": "Annexin V-FITC/PI 72 h EA (early apoptosis)", "setting": "SKOV3 cells", "value": 3.8, "unit": "%"}, {"measurement": "Annexin V-FITC/PI 72 h LA (late apoptosis)", "setting": "SKOV3 cells", "value": 3.1, "unit": "%"}, {"measurement": "Annexin V-FITC/PI 72 h Live", "setting": "SKOV3 cells", "value": 90.7, "unit": "%"}, {"measurement": "Annexin V-FITC/PI 72 h Necrosis", "setting": "SKOV3 cells", "value": 2.4, "unit": "%"}, {"measurement": "Annexin V-positive SKOV3 cells", "setting": "SKOV3 cells", "value": 7, "unit": "%"}, {"measurement": "Annexin V-FITC/PI 72 h Live", "setting": "SKOV3 cells; listed as paclitaxel", "value": 91, "unit": "%"}, {"measurement": "IC50", "setting": "[1]", "value": 39, "unit": "nM"}, {"measurement": "IC50", "setting": "[2]", "value": 6, "unit": "nM"}, {"measurement": "IC50", "setting": "[3]", "value": 3, "unit": "nM"}, {"measurement": "IC50", "setting": "[4]", "value": 2.8, "unit": "nM"}, {"measurement": "IC50", "setting": "[5]", "value": 2.5, "unit": "nM"}, {"measurement": "Aqueous solubility", "setting": "[6]", "value": "<2", "unit": "µg/mL"}, {"measurement": "IC50", "setting": "[7]", "value": 17, "unit": "nM"}, {"measurement": "IC50", "setting": "[8]", "value": 2.6, "unit": "nM"}, {"measurement": "IC50", "setting": "[9]", "value": 81, "unit": "nM"}]}
